Laboratory results published in US20240376099A1, “COMPOUNDS AND COMPOSITIONS AS INHIBITORS OF ENDOSOMAL TOLL-LIKE RECEPTORS” (Novartis AG, priority 2016, published 2024).

What follows are compounds tested against T1, TLR7 (Homo sapiens, UniProt Q9NYK1) (assay: huPBMC TLR7 Antagonist IFNα Assay). Conditions: human PBMCs stimulated with ssRNA40 10 μg/mL (DOTAP), 14-16 hrs; IFNα2b AlphaLISA read-out.
T1 construct: Fresh blood was collected from normal human donors; endogenous in cells; host or cells: human PBMCs from fresh donor blood
T1 sequence (Q9NYK1 27-1049): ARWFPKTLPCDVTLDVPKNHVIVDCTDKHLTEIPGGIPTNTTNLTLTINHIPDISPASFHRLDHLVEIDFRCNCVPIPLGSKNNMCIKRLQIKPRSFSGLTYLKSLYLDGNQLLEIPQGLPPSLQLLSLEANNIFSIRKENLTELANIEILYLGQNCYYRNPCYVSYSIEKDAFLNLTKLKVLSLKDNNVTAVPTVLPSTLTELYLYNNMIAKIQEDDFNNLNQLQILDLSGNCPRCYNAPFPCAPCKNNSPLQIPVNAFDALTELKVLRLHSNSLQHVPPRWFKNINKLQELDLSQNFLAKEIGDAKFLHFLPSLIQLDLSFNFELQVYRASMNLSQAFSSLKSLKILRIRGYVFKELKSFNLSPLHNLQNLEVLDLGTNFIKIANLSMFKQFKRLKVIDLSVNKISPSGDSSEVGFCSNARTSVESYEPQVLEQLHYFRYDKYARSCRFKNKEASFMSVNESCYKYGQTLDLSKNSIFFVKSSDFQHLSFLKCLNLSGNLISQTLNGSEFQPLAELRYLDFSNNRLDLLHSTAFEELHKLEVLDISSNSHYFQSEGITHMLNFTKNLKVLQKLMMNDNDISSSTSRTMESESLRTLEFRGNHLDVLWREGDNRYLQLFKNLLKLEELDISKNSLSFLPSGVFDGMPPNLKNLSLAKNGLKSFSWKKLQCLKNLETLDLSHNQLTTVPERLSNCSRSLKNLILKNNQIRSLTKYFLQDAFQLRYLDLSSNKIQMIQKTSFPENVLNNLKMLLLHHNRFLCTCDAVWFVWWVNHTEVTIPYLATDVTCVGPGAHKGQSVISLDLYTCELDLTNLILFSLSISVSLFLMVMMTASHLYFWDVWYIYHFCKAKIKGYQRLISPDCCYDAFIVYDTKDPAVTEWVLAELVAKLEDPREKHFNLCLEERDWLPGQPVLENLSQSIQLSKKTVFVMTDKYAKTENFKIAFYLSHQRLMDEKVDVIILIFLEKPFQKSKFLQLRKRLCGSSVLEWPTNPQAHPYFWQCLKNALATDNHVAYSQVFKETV
Type: cell-based
Method in brief: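 Human PBMCs from fresh donor blood (150,000 cells/well) stimulated 14–16 h at 37 °C with DOTAP-complexed ssRNA40 (final 1 μg/ml for TLR8, 10 μg/mL for TLR7) or ODN2216 (final 0.3 μM, TLR9), 0.25% DMSO, ten-point 1/3 compound dilutions. Supernatant IL-6 read by HTRF (TLR8); IFNα by IFNα2b AlphaLISA (TLR7/TLR9).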

| SMILES | IC50 |
| --- | --- |
| Cc1c2c(nn1CC13CCC(N)(CC1)CC3)CCN(c1nc(N)nc3c1cnn3C)C2 [compound 14, 4-(2-((4-aminobicyclo[2.2.2]octan-1-yl)methyl)-3-methyl-6,7-dihydro-2H-pyrazolo[4,3-c]pyridin-5(4H)-yl)-1-methyl-1H-pyrazolo[3,4-d]pyrimidin-6-amine] | 241 nM |
| CNCC(=O)NC12CCC(Cn3nc(C)c4c3CCN(c3cc(C)nc5c3cnn5C)C4)(CC1)CC2 [compound 121, N-(4-((5-(1,6-dimethyl-1H-pyrazolo[3,4-b]pyridin-4-yl)-3-methyl-4,5,6,7-tetrahydro-1H-pyrazolo[4,3-c]pyridin-1-yl)methyl)bicyclo[2.2.2]octan-1-yl)-2-(methylamino)acetamide] | 5 nM |
| Cc1cc(N2CCc3c(c(C(F)(F)F)nn3CC34CCC(N)(CC3)CC4)C2)c2cnn(C)c2n1 [compound 45, 4-((5-(1,6-dimethyl-1H-pyrazolo[3,4-b]pyridin-4-yl)-3-(trifluoromethyl)-4,5,6,7-tetrahydro-1H-pyrazolo[4,3-c]pyridin-1-yl)methyl)bicyclo[2.2.2]octan-1-amine] | 38 nM |
| CCN(C)CC(=O)NC12CCC(Cn3nc(C)c4c3CCN(c3cc(C)nc5c3cnn5C)C4)(CC1)CC2 [compound 132, N-(4-((5-(1,6-dimethyl-1H-pyrazolo[3,4-b]pyridin-4-yl)-3-methyl-4,5,6,7-tetrahydro-1H-pyrazolo[4,3-c]pyridin-1-yl)methyl)bicyclo[2.2.2]octan-1-yl)-2-(ethyl(methyl)amino)acetamide] | < 0.508 nM |
| Cc1cc(N2CCc3c(c(C)nn3CC34CCC(NC(=O)CN5CCCC5)(CC3)CC4)C2)c2cnn(C)c2n1 [compound 100, N-(4-((5-(1,6-dimethyl-1H-pyrazolo[3,4-b]pyridin-4-yl)-3-methyl-4,5,6,7-tetrahydro-1H-pyrazolo[4,3-c]pyridin-1-yl)methyl)bicyclo[2.2.2]octan-1-yl)-2-(pyrrolidin-1-yl)acetamide] | 5 nM |
| Cc1cc(N2CCc3c(c(C)nn3CC34CCC(NC(=O)OC(C)(C)C)(CC3)CC4)C2)c2ccncc2n1 [Compound No. 147, tert-butyl (4-((3-methyl-5-(2-methyl-1,7-naphthyridin-4-yl)-4,5,6,7-tetrahydro-1H-pyrazolo[4,3-c]pyridin-1-yl)methyl)bicyclo[2.2.2]octan-1-yl)carbamate] | 33 nM |
| CCn1ncc2c(N3CCc4c(c(C)nn4CC45CCC(NC(=O)[C@@H]6COCCN6)(CC4)CC5)C3)cc(C)nc21 [compound 141, (S)-N-(4-((5-(1-ethyl-6-methyl-1H-pyrazolo[3,4-b]pyridin-4-yl)-3-methyl-4,5,6,7-tetrahydro-1H-pyrazolo[4,3-c]pyridin-1-yl)methyl)bicyclo[2.2.2]octan-1-yl)morpholine-3-carboxamide] | 32 nM |
| CCNCCC(=O)NC12CCC(Cn3nc(C)c4c3CCN(c3cc(C)nc5c3cnn5C)C4)(CC1)CC2 [compound 126, N-(4-((5-(1,6-dimethyl-1H-pyrazolo[3,4-b]pyridin-4-yl)-3-methyl-4,5,6,7-tetrahydro-1H-pyrazolo[4,3-c]pyridin-1-yl)methyl)bicyclo[2.2.2]octan-1-yl)-3-(ethylamino)propanamide] | 20 nM |
| Cn1ncc2c(N3CCc4nn(CC56CCC(N)(CC5)CC6)cc4C3)nc(N)nc21 [compound 12, 4-(2-((4-aminobicyclo[2.2.2]octan-1-yl)methyl)-6,7-dihydro-2H-pyrazolo[4,3-c]pyridin-5(4H)-yl)-1-methyl-1H-pyrazolo[3,4-d]pyrimidin-6-amine] | 841 nM |
| Cc1nc(N2CCc3c(c(C)nn3CC34CCC(NC(=O)[C@@H]5CNCCO5)(CC3)CC4)C2)c2c(n1)c(C)nn2C [compound 34, (S)-N-(4-((3-methyl-5-(1,3,5-trimethyl-1H-pyrazolo[4,3-d]pyrimidin-7-yl)-4,5,6,7-tetrahydro-1H-pyrazolo[4,3-c]pyridin-1-yl)methyl)bicyclo[2.2.2]octan-1-yl)morpholine-2-carboxamide] | 13 nM |
| COCCNC12CCC(Cn3nc(C)c4c3CCN(c3nc(C)nc5c(C)nn(C)c35)C4)(CC1)CC2 [compound 18, N-(2-methoxyethyl)-4-((3-methyl-5-(1,3,5-trimethyl-1H-pyrazolo[4,3-d]pyrimidin-7-yl)-4,5,6,7-tetrahydro-1H-pyrazolo[4,3-c]pyridin-1-yl)methyl)bicyclo[2.2.2]octan-1-amine] | 245 nM |
| Cc1cc(N2CCc3c(c(C)nn3CC34CCC(NC(=O)CCN(C)C)(CC3)CC4)C2)c2cnn(C)c2n1 [compound 105, N-(4-((5-(1,6-dimethyl-1H-pyrazolo[3,4-b]pyridin-4-yl)-3-methyl-4,5,6,7-tetrahydro-1H-pyrazolo[4,3-c]pyridin-1-yl)methyl)bicyclo[2.2.2]octan-1-yl)-3-(dimethylamino)propanamide] | 14 nM |
| Cc1nc(N2CCc3c(c(C)nn3CC34CCC(NC(=O)[C@H]5CNCCO5)(CC3)CC4)C2)c2c(n1)c(C)nn2C [compound 36, (R)-N-(4-((3-methyl-5-(1,3,5-trimethyl-1H-pyrazolo[4,3-d]pyrimidin-7-yl)-4,5,6,7-tetrahydro-1H-pyrazolo[4,3-c]pyridin-1-yl)methyl)bicyclo[2.2.2]octan-1-yl)morpholine-2-carboxamide] | 7 nM |
| Cc1nn(CC23CCC(NC4CCC4)(CC2)CC3)c2c1CN(c1ccnc(-c3ccccc3)c1)CC2 [compound 144, N-cyclobutyl-4-((3-methyl-5-(2-phenylpyridin-4-yl)-4,5,6,7-tetrahydro-1H-pyrazolo[4,3-c]pyridin-1-yl)methyl)bicyclo[2.2.2]octan-1-amine] | 73 nM |
| Cc1nn(CC23CCC(N)(CC2)CC3)c2c1CN(c1nc(N)nc3c1cnn3C)CC2 [compound 13, 4-(1-((4-aminobicyclo[2.2.2]octan-1-yl)methyl)-3-methyl-6,7-dihydro-1H-pyrazolo[4,3-c]pyridin-5(4H)-yl)-1-methyl-1H-pyrazolo[3,4-d]pyrimidin-6-amine] | 42 nM |
| Cc1cc(N2CCc3c(c(C)nn3CC34CCC(N5C[C@@H](C)O[C@H](C)C5)(CC3)CC4)C2)c2cnn(C)c2n1 [compound 113, (2R,6R)-4-(4-((5-(1,6-dimethyl-1H-pyrazolo[3,4-b]pyridin-4-yl)-3-methyl-4,5,6,7-tetrahydro-1H-pyrazolo[4,3-c]pyridin-1-yl)methyl)bicyclo[2.2.2]octan-1-yl)-2,6-dimethylmorpholine] | 53 nM |
| Cc1cc(N2CCc3c(c(C)nn3CC34CCC(N5CCN(C)CC5=O)(CC3)CC4)C2)c2cnn(C)c2n1 [Compound No. 108, 1-(4-((5-(1,6-dimethyl-1H-pyrazolo[3,4-b]pyridin-4-yl)-3-methyl-4,5,6,7-tetrahydro-1H-pyrazolo[4,3-c]pyridin-1-yl)methyl)bicyclo[2.2.2]octan-1-yl)-4-methylpiperazin-2-one] | 21 nM |
| Cc1nc(N2CCc3c(c(C)nn3CC34CCC(N5CCCC5)(CC3)CC4)C2)c2cn[nH]c2n1 [compound 30, 6-methyl-4-(3-methyl-1-((4-(pyrrolidin-1-yl)bicyclo[2.2.2]octan-1-yl)methyl)-6,7-dihydro-1H-pyrazolo[4,3-c]pyridin-5(4H)-yl)-1H-pyrazolo[3,4-d]pyrimidine] | 10 nM |
